EP0911330B1, “1-(4-Arylpiperazine-1-y1)-3-(2-oxopyrrolidin/piperidin-1-y1) propanes as therapeutic agents for hypertension, ischemia, cardiovascular and other adrenergic receptors related disorders” (Council of Scientific & Industrial Research, priority 1997, dated 1999)

Key:
Acute toxicity (LD50) = settings: mouse, in vivo, Mice
[1] = tested on: Naturally occuring hypertensive cat; experiment: Effect on blood pressure, heart rate and adrenaline vasopressor response, anaesthetized naturally hypertensive cat; assay type: in vivo
Procedure: (§1) 2. Effect on blood pressure, heart rate and adrenaline vasopressor response of anaesthetized (pentobarbitone sodium 40 & 60 mg/kg i.p. in cat and rat respectively) normotensive & hypertensive rat & cat model preparations.
(§2) • (a) Cats (2.6-4.0 kg) of either sex anaesthetized with pentobarbitone sodium (40 mg/kg i.v.) and showing basal mean arterial blood pressure below 150 mm (Hg) were categorised as normotensive and above 150 mm Hg as hypertensive. Arterial blood pressure (BP) was recorded from one of the carotid artery through a stathum P23 DC pressure transducer and 7P1 low level DC preamplifier on a Grass Model P7 Polygraph, Signals from 7P1 preamplifier were used to trigger 7P4 Tachograph preamplifier for recording the heart rate (HR). Right femoral vein and Trachea were cannulated for intravenous injections and artificial ventilation respectively. Control responses to intravenous injection of noradrenaline (2-4 ug); acetyl choline (1-2 ug); histamine ([…]) and isoprenaline (1-2 ug) were taken before and after the administration of test doses of each compounds.

Normotensive cat = experiment: Effect on blood pressure, heart rate and adrenaline vasopressor response, anaesthetized normotensive cat; assay type: in vivo
Procedure: as §1, §2

[2] = tested on: Hypertensive rat model preparation; experiment: Effect on blood pressure, heart rate and adrenaline vasopressor response, anaesthetized hypertensive rat model; assay type: in vivo
Procedure: 2. Effect on blood pressure, heart rate and adrenaline vasopressor response of anaesthetized (pentobarbitone sodium 40 & 60 mg/kg i.p. in cat and rat respectively) normotensive & hypertensive rat & cat model preparations. […]

[3] = tested on: Normotensive rat model preparation; experiment: Effect on blood pressure, heart rate and adrenaline vasopressor response, anaesthetized normotensive rat; assay type: in vivo
Procedure: as §1

Spinal transected cat = experiment: Site of action: spinal transected cat, blood pressure; assay type: in vivo; settings: dose 2-10 umol/kg i.d.
[4] = Site of action: ICV administration, blood pressure; assay type: in vivo; settings: dose 0.34-1.36 (column head: umol/kg i.d.)
Rat hind limb perfusion = experiment: Site of action: rat hind limb perfusion, flow; assay type: in vivo
Isolated aortic strip = experiment: Isolated aortic strip, endothelin induced contraction
[5] = tested on: Isolated Guinea pig ileum preparation; experiment: Isolated guinea pig ileum, antihistaminic activity; settings: 0.5-5.0 ug/ml
[6] = tested on: Langendorffs perfused rat heart preparation; experiment: Langendorff perfused rat heart, chronotropic effect
[7] = tested on: histamine induced bronchoconstriction; experiment: Konzett and Rossler preparation, histamine induced bronchoconstriction; assay type: in vivo
[8] = tested on: Rat aortic ring preparation; experiment: Rat aortic ring preparation, NE induced contraction
cat [9] = experiment: Drug antagonism studies of the antihypertensive effect in cat; assay type: in vivo; settings: 2 uMol dose i.v.
cat [10] = experiment: Comparative antihypertensive effect with clinically used antihypertensive drugs in cat; assay type: in vivo; settings: 2 uMol/kg i.v.
Text: (4) Comparative antihypertensive effect with clinically used antihypertensive drugs at 2 uMol/kg i.v. dose in cat

[11] = tested on: Langendorff perfused rat heart preparation; experiment: Cardioprotective activity, Langendorff perfused rat heart, prolonged ischemic insult, compound given at reperfusion
Procedure: Further, in Langendorff perfused rat heart preparation subjected to even upto 90 min. global ischemia, the compound at 0.001 ug/ml conc. given at the time of reperfusion revived normal rhythmic contraction started within 2 min. (Table 1) and incidence of reperfusion induced arrhythmia were abolished. Table 1: Compound administered at the time of reperfusion at the dose of 0.001 ug/ml on prolong period (90 min.) of ischemic insult.
(§3) The rats were killed by decapitation, heart were rapidly excised and placed in ice-cold HEPES tyrode buffer. Then isolated hearts were perfused retrogradely through coronary arteries using the Langendorff technique. The perfusion buffer consisted (in mM) NaCl 137, KCl 5.4, CaCl2 1.8, MgCl2 1.0, glucose 11.2 and HEPES 3.0. The buffer (pH 7.4) was continuously gassed with oxygen and maintained at 37°C. Coronary flow rate was maintained at 10 ml/min. The heart contracted spontaneously.
(§4) The perfused heart was allowed to equilibrate for 30 min. before initiation of any insult protocol. The text compounds were given at the time of reperfusion. Some of the compounds were dissolved in ethanol. Final concentration of ethanol in the perfusion buffer was 0.0001% and had no effect of its own on the parameter used. • (a) For brief period of ischemic insult (Hideo et al.). Pathophysiology and pathogenesis of stunned myocardium. J. Clin. Invest., 79, 950-961, 1987). Ischemia was initiated by stopping the flow for 16 min. followed by 30 min. reperfusion period. The durations were decided on the initial pilot experiments leading to 50% recovery of function. • (b) For prolong period of ischemic insult (Becker, L.C. & Ambrosio, G. Myocardial consequences of reperfusion. Prog. Cardiovas. Dis., 30, 23-44, 1987). Ischemia was initiated by stopping the flow for […]. followed by 30 min. reperfusion.

cat [12] = experiment: Effect on blood pressure and adrenaline vasopressor response in anaesthetized cat, i.v. (Table 2); assay type: in vivo
Procedure: as §2

[13] = tested on: Langendorff perfused rat heart; experiment: Antiischemic activity, Langendorff perfused rat heart, brief (16 min.) ischemic insult, compound given at reperfusion (Table 3); settings: 0.001 ug/ml at reperfusion
Procedure: Table 3: Compound administered at the time of reperfusion at a dose of 0.001 ug/ml on brief period (16 min.) of ischemic insult.
as §3, §4

[14] = dose 20 uMol/kg i.d., in beats/min (unit assumed)
[15] = up to 90 min. global ischemia, 0.001 ug/ml given at the time of reperfusion

O=C1CCCN1CCCN1CCN(c2ccc(F)cc2)CC1 [C6H4-4-F, n=1, 1-[4-(4-fluorophenyl)piperazin-1-yl]-3-[2-oxopyrrolidin-1-yl]propane]
LD50 (Acute toxicity (LD50); ip): 147 mg/kg
LD50 (Acute toxicity (LD50); po): 562 mg/kg
Adrenaline vasopressure response % inhibition ([1]; dose 10 uMol/kg i.d.): 49%
B.P. fall ([1]; dose 10 uMol/kg i.d.): 16%
Dur. ([1]; dose 10 uMol/kg i.d.): 110 min
Heart rate Pre treatment ([1]; dose 10 uMol/kg i.d.): 195/195
Heart rate post treatment ([1]; dose 10 uMol/kg i.d.): 195/195
B.P. fall ([1]; dose 20 uMol/kg i.d.): 22%
Dur. ([1]; dose 20 uMol/kg i.d.): >156.75 min
Heart rate Pre treatment [1, 14]: 177
Heart rate post treatment [1, 14]: 185
Adrenaline vasopressure response % inhibition (Normotensive cat; dose 10 uMol/kg i.d.): 26%
B.P. fall (Normotensive cat; dose 10 uMol/kg i.d.): 22%
Dur. (Normotensive cat; dose 10 uMol/kg i.d.): 85 min
Heart rate Pre treatment (Normotensive cat; dose 10 uMol/kg i.d.): 200 beats/min
Heart rate post treatment (Normotensive cat; dose 10 uMol/kg i.d.): 170 beats/min
Adrenaline vasopressure response % inhibition (Normotensive cat; dose 20 uMol/kg i.d.): 34.75%
B.P. fall (Normotensive cat; dose 20 uMol/kg i.d.): 21%
Dur. (Normotensive cat; dose 20 uMol/kg i.d.): >102.5 min
Heart rate Pre treatment (Normotensive cat; dose 20 uMol/kg i.d.): 185 beats/min
Heart rate post treatment (Normotensive cat; dose 20 uMol/kg i.d.): 165 beats/min
Adrenaline vasopressure response % inhibition ([2]; dose 5 uMol/kg i.d.): 33%
B.P. fall ([2]; dose 5 uMol/kg i.d.): 27%
Dur. ([2]; dose 5 uMol/kg i.d.): 51 min
Heart rate Pre treatment ([2]; dose 5 uMol/kg i.d.): 346 beats/min
Heart rate post treatment ([2]; dose 5 uMol/kg i.d.): 320 beats/min
Adrenaline vasopressure response % inhibition ([2]; dose 10 uMol/kg i.d.): 23%
B.P. fall ([2]; dose 10 uMol/kg i.d.): 22%
Dur. ([2]; dose 10 uMol/kg i.d.): 76 min
Heart rate Pre treatment ([2]; dose 10 uMol/kg i.d.): 356 beats/min
Heart rate post treatment ([2]; dose 10 uMol/kg i.d.): 340 beats/min
Adrenaline vasopressure response % inhibition ([2]; dose 20 uMol/kg i.d.): 54%
B.P. fall ([2]; dose 20 uMol/kg i.d.): 29%
Dur. ([2]; dose 20 uMol/kg i.d.): 100 min
Heart rate Pre treatment ([2]; dose 20 uMol/kg i.d.): 310 beats/min
Heart rate post treatment ([2]; dose 20 uMol/kg i.d.): 275 beats/min
B.P. fall ([3]; dose 2 uMol/kg i.v.): 25%
Dur. ([3]; dose 2 uMol/kg i.v.): 11 min
Heart rate Pre treatment ([3]; dose 2 uMol/kg i.v.): 350 beats/min
Heart rate post treatment ([3]; dose 2 uMol/kg i.v.): 370 beats/min
B.P. fall ([3]; dose 10 uMol/kg i.v.): 10%
Dur. ([3]; dose 10 uMol/kg i.v.): 3 min
Heart rate Pre treatment ([3]; dose 10 uMol/kg i.v.): 315 beats/min
Heart rate post treatment ([3]; dose 10 uMol/kg i.v.): 360 beats/min
B.P. fall ([3]; dose 20 uMol/kg i.v.): 21%
Dur. ([3]; dose 20 uMol/kg i.v.): 27.5 min
Heart rate Pre treatment ([3]; dose 20 uMol/kg i.v.): 315 beats/min
Heart rate post treatment ([3]; dose 20 uMol/kg i.v.): 285 beats/min
B.P. fall (Spinal transected cat): 14-18%
Dur. (Spinal transected cat): 15 to 30 min
B.P. fall [4]: 8-10%
Dur. [4]: 10 to 15 min
Percent change in flow (Rat hind limb perfusion; total dose 10 ug): no effect
Percent change in flow (Rat hind limb perfusion; total dose 25 ug): +35 (Vasodilatation) Percent
Percent change in flow (Rat hind limb perfusion; total dose 50 ug): +50 (Vasodilatation) Percent
Endothelin induced contraction (Isolated aortic strip): inhibited significantly
Response to endothelin after washing the preparation (Isolated aortic strip; after washing): relaxation rather than contraction
antihistaminic activity [5]: significant antihistaminic activity
duration of negative chronotropic effect ([6]; 1 ug): 10 min
negative chronotropic effect ([6]; 1 ug): 30%
duration of negative chronotropic effect ([6]; 3 ug): 14 min
negative chronotropic effect ([6]; 3 ug): 26%
duration of negative chronotropic effect ([6]; 5 ug): 5 min
negative chronotropic effect ([6]; 5 ug): 5%
antihistaminic activity against histamine induced bronchoconstriction [7]: some antihistaminic activity
NE induced contraction [8]: inhibited
reduction of the fall in blood pressure (cat [9]; glibenclamide pretreatment): only partially reduced
alteration of antihypertensive effect (cat [9]; pretreatment with atropine sulphate, mepyramine maleate, propranolol, or yohimbine): failed to alter
reduction of antihypertensive effect (cat [9]; pretreatment with captopril or Dup-753): 33%
reduction of antihypertensive effect (cat [9]; pretreatment with prazosin): 90%
reduction of antihypertensive effect (cat [9]; pretreatment with verapamil): 50%
B.P. fall (cat [10]): 22%
Dur. (cat [10]): 25 min
Onset ([11]; 0.001 ug/ml at reperfusion, 90 min. ischemic insult): 4 min
incidence of reperfusion induced arrhythmia [11, 15]: abolished
time until normal rhythmic contraction started [11, 15]: ≤ 2 min
inhibition at 2 µmol/kg (cat [12]; Felis catus, iv, dose 2.0 umol/kg i.v., read-out: Adrenaline vasopressure response % inhibition): 9%
inhibition in vivo at 2 µmol/kg (cat [12]; Felis catus, iv, dose 2.0 umol/kg i.v., read-out: B.P. fall %): 25%
inhibition at 10 µmol/kg (cat [12]; Felis catus, iv, dose 10.0 umol/kg i.v., read-out: Adrenaline vasopressure response % inhibition): > 100%
inhibition in vivo at 10 µmol/kg (cat [12]; Felis catus, iv, dose 10.0 umol/kg i.v., read-out: B.P. fall %): 31%
Dur. (cat [12]; dose 2.0 umol/kg i.v.): 71 min
Dur. (cat [12]; dose 10.0 umol/kg i.v.): >112 min
Onset [13]: 1.5 min
